# Earlier results as cited in patent publication US6989371B1, “Bombesin analogs for treatment of cancer” (Dabur Research Foundation, priority 1996, dated 2006).
# Key:
# [1] = tested on: MCF-7 MIII human breast cancer cell line xenografts; settings: MCF-7 MIII xenografts, female athymic nude mice, after 2 weeks of treatment, alone or in combination with SB-75; cited from earlier work
# [2] = tested on: human gastric cancer cell line Hs746T xenografts; settings: nude mice bearing Hs746T xenografts; cited from earlier work
substance,measurement,setting,value
"(DTpi6, Leu3, psi[CH2NH]—Leu14) bombesin (6–14) [RC-3095]",tumor volume,[1],significant inhibition of tumor volume
same,tumor growth,[2],effectively inhibited tumor growth
